According to US20260240843A1, “PHARMACEUTICAL COMPOSITION AND USE THEREOF” (priority 2023, published 2026):
Where a name gives a salt, the structure may show the parent alone. Read-outs that look alike come from different tables or passages of the source.

Legend:
[1] = tested on: mouse ovarian cancer ID8 cells; experiment: Murine ovarian cancer ID8 cell intraperitoneal model, combination with PLD; format: in vivo, mouse (C57BL/6)
Procedure: A total of 90 C57BL/6 mice were intraperitoneally injected with 15×10^6 ID8 cells to establish an ovarian cancer intraperitoneal model.
The body weight and tumor volume of the animals were measured twice or thrice a week during the experiment. The clinical symptoms were observed and recorded daily. After the administration was completed, the abdominal girth, body weight, and survival time of the mice were continuously observed until all the animals were subjected to euthanasia.
The tumor volume (TV) was measured using an IVIS imaging system, and the total luminescence value (Total flux) of each mouse was calculated under the same measurement area.
The animals were euthanized according to animal welfare principles when the body weight loss of the animals exceeded 20%, disease progression or moribund state was observed, the tumor burden exceeded 10% of the animal's body weight, the abdominal girth exceeded 100 mm, or the body weight exceeded 30 g.
Graphing was performed using Prism version 9 (GraphPad Software Inc., San Diego, CA), and the survival time and ascites production time were analyzed using the log-rank test.

[2] = tested on: human ovarian cancer OVCAR3 cell xenograft tumor; settings: doxorubicin hydrochloride 3 mg/kg i.v. qw x 4 w; for tumor growth inhibition (in words): (I-1) 100 mg/kg p.o. qd x 28 d; for RTV on day 29 after administration (mean value ± standard error) / T/C (%) on day 29 after administration: day 29, (I-1) 100 mg/kg p.o. qd x 28 d
Text: A total of 71 immunodeficient mice were subcutaneously injected with 10×10^6 OVCAR3 cells to establish a xenograft tumor model. Tumor-bearing mice with uniform tumors were randomly grouped into different treatment groups based on tumor volume, with 7 mice in each group.
Tumor cells: OVCAR3; 10×10^6 cells+Matrigel gel/mouse. A total of 71 mice were inoculated. 28 tumor-bearing mice with relatively uniform tumors were selected and randomly divided into 4 experimental groups, with 7 mice per group.
(§1) Under sterile conditions, a xenograft tumor model was established by subcutaneous injection of tumor cells into the right dorsal side of immunodeficient mice. When the tumor reached an appropriate size (100 mm^3 to 200 mm^3), the animals were randomly grouped by randomized block method based on the tumor volume of the animals, the tumor volume difference of each group should be less than 20% of the mean value, with 6 to 7 animals in each group, and administration was started on the day of grouping (i.e., d1). The body weight and tumor size of the animals were measured twice a week during the experiment. The clinical symptoms were observed and recorded daily. At the end of administration or at the end of the experiment.
(§2) The tumor volume (TV) was calculated as follows: TV=a×b^2/2, where a and b represent the measured length and width of the tumor, respectively.
(§3) The relative tumor volume (RTV) was calculated as follows: RTV=Vt/V1, where V1 represents the tumor volume at the time of grouping and administration (day 1), and Vt represents the tumor volume at the time of measurement.
(§4) The synergy score was calculated using the following formula (Clarke R, 1997):
(§5) [formula] • where A represents response to drug A; B represents response to drug B; C represents response to vehicle control; AB represents response to combination treatment with A and B.
(§6) The antitumor growth curves of the test substances were plotted by taking the X-axis as the treatment time (day) and the corresponding tumor volume (mean value) as the Y-axis. […] All data were statistically analyzed using SPSS (Statistical Product and Service Solutions) software (version 18.0, IBM, Armonk, NY, U.S.). Graphing was performed using Prism version 6 (GraphPad Software Inc., San Diego, CA).
(§7) For combination treatment, a synergy score of <1 indicated antagonistic effect, a synergy score of =1 indicated additive effect, and a synergy score of >1 indicated synergistic effect.

[3] = tested on: human ovarian cancer OVCAR3 cell xenograft tumor; settings: PLD 3 mg/kg i.v. qw x 3 w; for tumor growth inhibition (in words): (I-1) 100 mg/kg p.o. qd x 21 d
Text: A total of 56 immunodeficient mice were subcutaneously injected with 10×10^6 OVCAR3 cells to establish a xenograft tumor model. Tumor-bearing mice with uniform tumors were randomly grouped into different treatment groups based on tumor volume, with 6 mice in each group.
Tumor cells: OVCAR3; 10×10^6 cells+Matrigel gel/mouse. A total of 56 mice were inoculated. 24 tumor-bearing mice with relatively uniform tumors were selected and randomly divided into 4 experimental groups, with 6 mice in each group.
as §1, §2, §3, §4, §5, §6, §7

[4] = day 22, (I-1) 100 mg/kg p.o. qd x 21 d

Cc1cc(Nc2ncc(Cl)c(Nc3ccccc3S(=O)(=O)C(C)C)n2)c(OC(C)C)cc1C1=CCN(C2CCOCC2)CC1 [Compound represented by formula (I-1)]
survival time of the mice (in words) ([1]; compared with the solvent control group (combination also vs. monotherapy groups)): prolonged
T/C on day 22 ([1]; day 22, (I-1) 100 mg/kg p.o. qd x 21 d, PLD 3 mg/kg i.v. qw x 3 w): 37.49%
T/C (%) on day 36 after administration ([1]; day 36, (I-1) 100 mg/kg p.o. qd x 21 d, PLD 3 mg/kg i.v. qw x 3 w): 97.13%
RTV on day 36 after administration (mean value ± standard error) ([1]; day 36, in vivo imaging (Total flux), (I-1) 100 mg/kg p.o. qd x 21 d, PLD 3 mg/kg i.v. qw x 3 w): 4.72 ± 1.35
tumor growth inhibition (in words) [2]: moderate tumor growth inhibition
RTV on day 29 after administration (mean value ± standard error) [2]: 7.95 ± 1.31
T/C (%) on day 29 after administration [2]: 63.15%
tumor growth inhibition (in words) [3]: moderate tumor growth inhibition
RTV on day 22 after administration (mean value ± standard error) [3, 4]: 7.42 ± 1.06
T/C (%) on day 22 after administration [3, 4]: 72.77%

COc1cccc2c1C(=O)c1c(O)c3c(c(O)c1C2=O)C[C@@](O)(C(=O)CO)C[C@@H]3O[C@H]1C[C@H](N)[C@H](O)[C@H](C)O1 [Doxorubicin hydrochloride, reference compound]
tumor growth inhibition (in words) [2]: moderate tumor growth inhibition
RTV on day 29 after administration (mean value ± standard error) [2]: 8.88 ± 1.19
T/C (%) on day 29 after administration [2]: 70.50%
tumor growth inhibition (in words) [3]: moderate tumor growth inhibition
